In US20180008569A1, “PROSTAGLANDIN TRANSPORTER INHIBITORS FOR INHIBITING OVULATION” (TEL HASHOMER MEDICAL RESEARCH INFRASTRUCTURE AND SERVICES …, priority 2015, published 2018):
Marks after values point to notes of the source that are not given here.

What was measured:
[1] = biological target: PGT (Homo sapiens, UniProt Q92959); assay: PGE2 concentration in media of MGCs by enzyme immunoassay (EIA); assay type: cell-based; set-up: basal media concentration of PGE2: dose or concentration left out as unconfirmed
Description: The concentration of PGE2 in the media was then measured by an enzyme immunoassay (EIA).

[2] = biological target: T1, PGT (Mus musculus, UniProt Q9EPT5); assay: Ovulated oocyte count in PMSG-primed/hCG-triggered immature female mice; assay type: in vivo; set-up: from tissue; host or cells: whole animal: PMSG-primed/hCG-triggered immature female mice (ovary)
[3] = biological target: T1, PGT; assay: Ovarian morphology (histology) in superovulated mice
[4] = Serum progesterone levels (corpus luteum function) in PMSG-primed/hCG-triggered mice; assay type: in vivo; details: concurrent treatment with DIDS, 24 hours post-hCG
Description: In order to assess corpus luteum function, serum progesterone levels were measured in PMSG-primed/hCG-triggered mice in the absence or presence of DIDS.

[5] = biological target: T1, PGT; assay: Oocyte maturation and cumulus expansion in vivo in mice; set-up: from tissue; host or cells: whole animal: PMSG-primed/hCG-triggered immature female mice (ovary)
Description: Ovulated COCs from hCG-treated mice were collected from the ampulla of the oviduct.

[6] = system: PGE2 downstream target genes; assay: Ovarian expression of ovulatory cascade, PG receptor and PG metabolism genes by qPCR in PMSG-primed/hCG+DIDS-treated mice; assay type: in vivo
Description: To characterize the ovulation-blocking effect of PGT at the molecular level, the effect of DIDS on the LH/CGR dependent activities was evaluated. Key representative genes of the ovulatory cascade were studied, including, oocyte maturation genes: amphiregulin (AREG), epiregulin (EREG), progesterone receptor (PR); cumulus expansion genes: tumor necrosis factor alpha-induced protein (TNFAIP6); follicular rupture related genes: disintegrin and metalloproteinase with thrombospondin motifs 1 (ADAMTS1), cathepsin L (CTSL); the ovulatory related genes: follicle stimulating hormone receptor (FSHR) and luteinizing hormone/chorionic gonadotropin receptor (LHCGR); and steroidogenesis related genes: steroidogenic acute regulatory protein (StAR) and cholesterol side cleavage chain (p450SCC). After total RNA was extracted from the ovaries of PMSG-primed/hCG+DIDS-treated mice and converted to cDNA, the expression of genes of interest was quantified by qPCR.

[7] = system: PGT transcripts in MGCs; assay: PGT transcripts (qPCR) in cultured FSH-pretreated human mural granulosa cells; details: for FSK-induced upregulation of PGT expression: then FSK 10 μM 24 hours; for hCG-induced upregulation of PGT expression: then hCG 1U/ml 24 hours
Description: FSH-pretreated MGCs were then exposed to vehicle (PBS) or AREG for 24 hours. PGT was quantified by qPCR and normalized to/3-actin expression. Data represent the mean±SEM of three independent experiments.

[8] = system: EP receptor; assay: Intracellular cAMP in MGCs after PGE2 pretreatment (EP receptor desensitization); assay type: cell-based, human; details: pretreated with 10 μM PGE2 10 min, washed, 10 μM PGE2 additional 10 min
Description: Inhibition of PGT activity or the provision of excess PGE2 results in the desensitization of the prostaglandin receptors […] and EP4 and thereby in a reduction in PGE2 signaling. An important second messenger for PGE2 is intracellular cAMP resulting from activation of either EP2 or EP4 receptor by PGE2. Thus, the hypothesis that excess PGE2 results in reduced PG signaling in human granulosa cells was tested. MGCs were incubated with 10 μM PGE2 for 10 min or pretreated with 10 μM PGE2 for 10 min, washed and then treated with 10 μM PGE2 for additional 10 min cAMP levels were measured in the cell lysate and was normalized to total protein content.

[9] = system: EP4 receptor; assay: EP4 receptor mRNA expression in FSH-pretreated MGCs; assay type: cell-based, human; details: 10 μM PGE2, 24 hours
[10] = system: whole ovarian PGT transcripts; assay: Whole ovarian PGT transcripts in PMSG-primed/hCG-triggered immature mouse superovulation model; assay type: in vivo; details: PMSG for 48 hours
[11] = Homo sapiens, read-out: increase in PGT transcripts (fold induction)

T1 sequence (Q9EPT5 whole entry): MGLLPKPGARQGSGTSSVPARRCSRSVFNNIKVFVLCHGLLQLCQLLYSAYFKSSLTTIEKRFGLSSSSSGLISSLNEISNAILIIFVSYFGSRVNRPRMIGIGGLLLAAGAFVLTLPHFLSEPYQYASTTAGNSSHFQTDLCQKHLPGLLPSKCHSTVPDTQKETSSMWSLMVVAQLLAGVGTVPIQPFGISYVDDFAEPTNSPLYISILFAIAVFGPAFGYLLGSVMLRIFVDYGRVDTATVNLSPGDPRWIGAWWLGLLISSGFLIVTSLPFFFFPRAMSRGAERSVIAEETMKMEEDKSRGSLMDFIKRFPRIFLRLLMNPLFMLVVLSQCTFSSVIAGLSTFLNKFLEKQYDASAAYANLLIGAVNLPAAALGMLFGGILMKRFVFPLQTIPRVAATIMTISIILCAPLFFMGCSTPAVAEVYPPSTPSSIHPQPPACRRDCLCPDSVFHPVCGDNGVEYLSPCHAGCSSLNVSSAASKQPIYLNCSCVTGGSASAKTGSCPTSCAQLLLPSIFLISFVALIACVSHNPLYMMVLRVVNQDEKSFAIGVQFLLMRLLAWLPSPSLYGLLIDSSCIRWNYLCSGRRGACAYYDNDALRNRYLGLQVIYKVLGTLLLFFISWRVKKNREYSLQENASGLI

Cc1c(C2(c3cc(Br)c(O)c(Br)c3C)OS(=O)(=O)c3ccccc32)cc(Br)c(O)c1Br [BCG, Bromocresol Green]
increase in the media concentration of PGE2 relative to controls ([1]; co-treatment hCG 1U/ml + BCG 50 mM, 24 hours): ~3 fold | basal media concentration of PGE2 ([1]; no hCG): without effect | ovulation ([2]; BCG at 500 and 350 mg/kg with hCG, 16 hours): complete blockade of ovulation | No. ova/ovulating mice (Mean ± SEM) ([2]; hCG + BCG 250 mg/kg, 16 hours): 58.4 ± 7.4 | Range of oocytes in ovulating mice ([2]; hCG + BCG 250 mg/kg, 16 hours): 12-61 | No. ova/ovulating mice (Mean ± SEM) ([2]; hCG + BCG 300 mg/kg, 16 hours): 1.3* | Range of oocytes in ovulating mice ([2]; hCG + BCG 300 mg/kg, 16 hours): 1-2 | No. ova/ovulating mice (Mean ± SEM) ([2]; hCG + BCG 350 mg/kg, 16 hours): 0* | No. ova/ovulating mice (Mean ± SEM) ([2]; hCG + BCG 500 mg/kg, 16 hours): 0* | ovarian morphology ([3]; hCG+BCG 350 mg/kg, 16 hours after hCG): un-ruptured follicles with entrapped oocytes

O=S(=O)(O)c1cc(N=C=S)ccc1C=Cc1ccc(N=C=S)cc1S(=O)(=O)O [DIDS, 4,4′-Diisothiocyanatostilbene-2,2′-disulfonic acid]
serum progesterone levels [4]: significant reduction | cumulus state of COCs ([5]; DIDS, 24 hours following treatment with hCG): compact cumulus | oocytes at GV ([5]; hCG + DIDS): 100% (102/102) | oocytes at MI ([5]; hCG + DIDS): 0% (0/102) | oocytes at MII ([5]; hCG + DIDS): 0% (0/102) | cumulus state of COCs ([5]; hCG and DIDS 50 mg/kg): compact cumulus | oocyte maturation stage ([5]; hCG+DIDS-treated mice): immature and at the GV stage | cumuli of recovered cumulus-oocyte-complexes ([5]; lower doses of DIDS): expanded normal-appearing cumuli | denuded oocytes from recovered cumulus-oocyte-complexes ([5]; lower doses of DIDS): morphologically normal, mature (M2) | ovulated oocyte count ([2]; different concentrations of DIDS at time of hCG, 16 hours): dose-dependent decrements | No. of oocytes in ovulating mice ([2]; hCG + DIDS 5 mg/kg, 16 hours): 7-77 | No. ova/ovulating mice (Mean ± SEM) ([2]; hCG + DIDS 5 mg/kg, 16 hours): 53.5 ± 5.1 | No. of oocytes in ovulating mice ([2]; hCG + DIDS 10 mg/kg, 16 hours): 10-60 | No. ova/ovulating mice (Mean ± SEM) ([2]; hCG + DIDS 10 mg/kg, 16 hours): 27.4 ± 6.8 | No. of oocytes in ovulating mice ([2]; hCG + DIDS 20 mg/kg, 16 hours): 1-51 | No. ova/ovulating mice (Mean ± SEM) ([2]; hCG + DIDS 20 mg/kg, 16 hours): 22 ± 6.8 | No. ova/ovulating mice (Mean ± SEM) ([2]; hCG + DIDS 50 mg/kg, 16 hours): 9 | inhibition at 50 mg/kg ([2]; mouse, read-out: inhibition of ovulation): 95.5% | ovarian morphology ([3]; hCG+DIDS, 16 hours after hCG): numerous unruptured preovulatory follicles with entrapped oocytes | ovarian morphology ([3]; hCG+DIDS, forty hours after hCG injection): still contained entrapped oocytes in preovulatory follicles | PGDH expression ([6]; addition of DIDS): not affected | downregulation of EP2 by hCG ([6]; addition of DIDS): abolished | reduction of FSHR mRNA in response to hCG ([6]; addition of DIDS): abolished | upregulation by hCG of COX-2 ([6]; addition of DIDS): inhibited | upregulation by hCG of EP4 ([6]; addition of DIDS): inhibited | upregulation by hCG of PGT ([6]; addition of DIDS): inhibited | expression of most of the ovulation related transcripts studied (except p450SCC and LHCGR) ([6]; ovaries of PMSG-primed/hCG+DIDS-treated mice): profound inhibition

C=C[C@@]1(C)CC(=O)[C@]2(O)[C@@]3(C)[C@@H](O)CCC(C)(C)[C@@H]3[C@H](O)[C@H](OC(C)=O)[C@@]2(C)O1 [FSK, forskolin]
fold induction at 10 µM [7, 11]: 25

O=S(=O)(NCCNC/C=C/c1ccc(Br)cc1)c1cccc2cnccc12 [H89]
FSK-induced upregulation of PGT expression ([7]; pretreatment 10 μM for 1 hour): largely inhibited | hCG-induced upregulation of PGT expression ([7]; pretreatment 10 μM for 1 hour): largely inhibited

CCCCC[C@H](O)/C=C/[C@H]1[C@H](O)CC(=O)[C@@H]1C/C=C\CCCC(=O)O [PGE2, Prostaglandin E2]
intracellular cAMP in response to further PGE2 stimulation [8]: significantly reduced accumulation of intracellular cAMP | EP4 receptor mRNA expression compared to controls [9]: significant downregulation

CCCCCCCCCCCCCC(=O)O[C@@H]1[C@@H](C)[C@@]2(O)[C@@H](C=C(CO)C[C@]3(O)C(=O)C(C)=C[C@@H]23)[C@@H]2C(C)(C)[C@]12OC(C)=O [PMA, phorbol myristate acetate]
fold induction at 0.02 µM [7, 11]: 11

N#CC(=C(/N)Sc1ccccc1N)/C(C#N)=C(\N)Sc1ccccc1N [U0126]
FSK-induced upregulation of PGT expression ([7]; pretreatment 10 μM for 1 hour): markedly inhibited | PMA-mediated upregulation of PGT transcripts ([7]; pretreatment 10 μM for 1 hour, then PMA 20 nM 24 hours): markedly inhibited | hCG-induced upregulation of PGT expression ([7]; pretreatment 10 μM for 1 hour): effectively abolished

Pregnant mare serum gonadotropin [PMSG]
level of PGT in the ovaries relative to control (saline) [10]: 2.3 folds

B1: amphiregulin (protein, UniProt P31955 100-248, looked up)
Amphiregulin: VIKPKKNKTEGEKSTEKPKRKKKGGKNGKGRRNKKKKNPCTAKFQNFCIHGECRYIENLEVVTCNCHQDYFGERCGEKSMKTHSEDDKDLSKIAVVAVTIFVSAIILAAIGIGIVITVHLWKRYFREYEGETEERRRLRQENGTVHAIA
induction of PGT expression ([7]; FSH-pretreated MGCs exposed to AREG for 24 hours, vs vehicle (PBS)): 3 fold
